Legend:
giant foxtail = assay: Test A preemergence; assay type: in vivo, Setaria faberii; details: Setaria faberi, pre-emergence, 240 h, read-out: Foxtail, Giant plant response rating
Method in brief: (§1)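 Visual injury scored 0–100 (100 = complete control) against untreated controls about 10 days after treatment in a greenhouse. Test chemicals, formulated with surfactant in non-phytotoxic solvent, were sprayed on soil preemergence or on 2-10 cm, one- to two-leaf plants postemergence.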

corn = assay: Test A preemergence; assay type: in vivo, Zea mays; details: Zea mays, pre-emergence, 240 h, read-out: Corn plant response rating
Method in brief: as §1

rice = assay: Test B flooded paddy test; assay type: in vivo, Oryza sativa; details: Oryza sativa; Flood, 250 g ai/ha; 0 to 100 scale where 0 is no effect and 100 is complete control; read-out: Plant response rating, Rice
Method in brief: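 Scores from 0 (no effect) to 100 (complete control) are visual comparisons with controls, taken 13 to 15 days after compound was applied into floodwater 3 cm deep around 2-leaf plants.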

yellow nutsedge [1] = assay: Test C preemergence; assay type: in vivo, Cyperus esculentus; details: Cyperus, pre-emergence
Method in brief: (§2)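 Injury was assessed visually against controls 13 to 15 days after application, with 0 meaning no effect and 100 full control; missing entries are shown as a dash. Preemergence sprays hit seeded loam–sand soil, postemergence sprays hit 1- to 4-leaf plants.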

pigweed [2] = assay: Test C preemergence; assay type: in vivo, Amaranthus retroflexus; details: Amaranthus retroflexus, pre-emergence
Method in brief: as §2

soybean = assay: Test C preemergence; assay type: in vivo, Glycine max; details: Glycine max, pre-emergence
Method in brief: as §2

velvetleaf = assay: Test C preemergence; assay type: in vivo, Abutilon theophrasti; details: Abutilon theophrasti, pre-emergence
Method in brief: as §2

blackgrass = assay: Test C postemergence; assay type: in vivo, Alopecurus myosuroides; details: Alopecurus myosuroides, post-emergence
Method in brief: as §2

Italian ryegrass = assay: Test C postemergence; assay type: in vivo, Lolium multiflorum; details: Lolium multiflorum, post-emergence
Method in brief: as §2

wheat, winter = assay: Test C postemergence; assay type: in vivo, Triticum aestivum; details: Triticum aestivum, post-emergence
Method in brief: as §2

lambsquarters = assay: Test C postemergence; assay type: in vivo, Chenopodium album; details: Chenopodium album, post-emergence
Method in brief: as §2

yellow nutsedge [3] = assay: Test C postemergence; assay type: in vivo, Cyperus esculentus; details: Cyperus, post-emergence
Method in brief: as §2

pigweed [4] = assay: Test C postemergence; assay type: in vivo, Amaranthus retroflexus; details: Amaranthus retroflexus, post-emergence
Method in brief: as §2

ragweed = assay: Test C postemergence; assay type: in vivo, Ambrosia elatior; details: Ambrosia artemisiifolia, post-emergence
Method in brief: as §2

wild oat = assay: Test C postemergence; assay type: in vivo, Avena fatua; details: Avena fatua, post-emergence
Method in brief: as §2

[5] = 125 g ai/ha, 0 to 100 scale where 0 is no effect and 100 is complete control
[6] = 500 g ai/ha, 0 to 100 scale, 0 no effect, 100 complete control, approx. 10 days

In the case of Clc1cnc(Oc2ccccc2-n2cc(Br)cn2)nc1 [Compound 7, 2-[2-(4-bromo-1H-pyrazol-1-yl)phenoxy]-5-chloropyrimidine], the pest or weed control at 125 g/ha (giant foxtail; [5]) is reported as 100%, the pest or weed control at 500 g/ha (giant foxtail; [6]) is reported as 100% and the plant injury at 125 g/ha (corn; [5]) is reported as 0%. It also gave a plant injury at 500 g/ha (corn; [6]) of 30%, a plant injury at 250 g/ha (rice) of 20% and a pest or weed control at 62 g/ha (yellow nutsedge [1]; 62 g ai/ha, preemergence, scale 0 (no effect) to 100 (complete control), read-out: Nutsedge, Yellow plant response rating) of 0%. It also gave a pest or weed control at 125 g/ha (yellow nutsedge [1]; 125 g ai/ha, preemergence, scale 0 (no effect) to 100 (complete control), read-out: Nutsedge, Yellow plant response rating) of 15%, a pest or weed control at 250 g/ha (yellow nutsedge [1]; 250 g ai/ha, preemergence, scale 0 (no effect) to 100 (complete control), read-out: Nutsedge, Yellow plant response rating) of 15% and a pest or weed control at 31 g/ha (yellow nutsedge [1]; Preemergence, 31 g ai/ha, scale 0 to 100, 0 no effect, 100 complete control, read-out: Plant response rating, Nutsedge, Yellow) of 0%. For the same compound, the pest or weed control at 62 g/ha (pigweed [2]; 62 g ai/ha, preemergence, scale 0 (no effect) to 100 (complete control), read-out: Pigweed plant response rating) was 100%, the pest or weed control at 125 g/ha (pigweed [2]; 125 g ai/ha, preemergence, scale 0 (no effect) to 100 (complete control), read-out: Pigweed plant response rating) was 100% and the pest or weed control at 250 g/ha (pigweed [2]; 250 g ai/ha, preemergence, scale 0 (no effect) to 100 (complete control), read-out: Pigweed plant response rating) was 100%. The pest or weed control at 31 g/ha (pigweed [2]; Preemergence, 31 g ai/ha, scale 0 to 100, 0 no effect, 100 complete control, read-out: Plant response rating, Pigweed) was 100%, the plant injury at 62 g/ha (soybean; 62 g ai/ha, preemergence, scale 0 (no effect) to 100 (complete control), read-out: Soybean plant response rating) was 40% and the plant injury at 125 g/ha (soybean; 125 g ai/ha, preemergence, scale 0 (no effect) to 100 (complete control), read-out: Soybean plant response rating) was 60%. The plant injury at 250 g/ha (soybean; 250 g ai/ha, preemergence, scale 0 (no effect) to 100 (complete control), read-out: Soybean plant response rating) was 98%, the plant injury at 31 g/ha (soybean; Preemergence, 31 g ai/ha, scale 0 to 100, 0 no effect, 100 complete control, read-out: Plant response rating, Soybean) was 15% and the pest or weed control at 62 g/ha (velvetleaf; 62 g ai/ha, preemergence, scale 0 (no effect) to 100 (complete control), read-out: Velvetleaf plant response rating) was 100%. For the same compound, the pest or weed control at 125 g/ha (velvetleaf; 125 g ai/ha, preemergence, scale 0 (no effect) to 100 (complete control), read-out: Velvetleaf plant response rating) was 100%, the pest or weed control at 250 g/ha (velvetleaf; 250 g ai/ha, preemergence, scale 0 (no effect) to 100 (complete control), read-out: Velvetleaf plant response rating) was 100% and the pest or weed control at 31 g/ha (velvetleaf; Preemergence, 31 g ai/ha, scale 0 to 100, 0 no effect, 100 complete control, read-out: Plant response rating, Velvetleaf) was 40%. For the same compound, the pest or weed control at 125 g/ha (blackgrass; 125 g ai/ha, postemergence, read-out: Plant response rating (0 to 100), Blackgrass) was 45%, the pest or weed control at 250 g/ha (blackgrass; 250 g ai/ha, postemergence, read-out: Plant response rating (0 to 100), Blackgrass) was 50% and the pest or weed control at 31 g/ha (blackgrass; Postemergence, 31 g ai/ha, scale 0 to 100 (0 no effect, 100 complete control), 13 to 15 days, read-out: Plant response rating, Blackgrass) was 5%. It also gave a pest or weed control at 62 g/ha (blackgrass; Postemergence, 62 g ai/ha, scale 0 to 100 (0 no effect, 100 complete control), read-out: Plant response rating, Blackgrass) of 10%, a pest or weed control at 125 g/ha (Italian ryegrass; 125 g ai/ha, postemergence, read-out: Plant response rating (0 to 100), Ryegrass, Italian) of 10% and a pest or weed control at 250 g/ha (Italian ryegrass; 250 g ai/ha, postemergence, read-out: Plant response rating (0 to 100), Ryegrass, Italian) of 40%. For the same compound, the pest or weed control at 31 g/ha (Italian ryegrass; Postemergence, 31 g ai/ha, scale 0 to 100 (0 no effect, 100 complete control), 13 to 15 days, read-out: Plant response rating, Ryegrass, Italian) was 5%, the pest or weed control at 62 g/ha (Italian ryegrass; Postemergence, 62 g ai/ha, scale 0 to 100 (0 no effect, 100 complete control), read-out: Plant response rating, Ryegrass, Italian) was 10% and the plant injury at 125 g/ha (wheat, winter; 125 g ai/ha, postemergence, read-out: Plant response rating (0 to 100), Wheat) was 10%. The plant injury at 250 g/ha (wheat, winter; 250 g ai/ha, postemergence, read-out: Plant response rating (0 to 100), Wheat) was 15%, the plant injury at 31 g/ha (wheat, winter; Postemergence, 31 g ai/ha, scale 0 to 100 (0 no effect, 100 complete control), 13 to 15 days, read-out: Plant response rating, Wheat) was 5% and the plant injury at 62 g/ha (wheat, winter; Postemergence, 62 g ai/ha, scale 0 to 100 (0 no effect, 100 complete control), read-out: Plant response rating, Wheat) was 5%. The pest or weed control at 125 g/ha (lambsquarters; 125 g ai/ha, postemergence, read-out: Plant response rating (0 to 100), Lambsquarters) was 98%, the pest or weed control at 250 g/ha (lambsquarters; 250 g ai/ha, postemergence, read-out: Plant response rating (0 to 100), Lambsquarters) was 98% and the pest or weed control at 31 g/ha (lambsquarters; Postemergence, 31 g ai/ha, scale 0 to 100 (0 no effect, 100 complete control), 13 to 15 days, read-out: Plant response rating, Lambsquarters) was 60%. The pest or weed control at 62 g/ha (lambsquarters; Postemergence, 62 g ai/ha, scale 0 to 100 (0 no effect, 100 complete control), read-out: Plant response rating, Lambsquarters) was 98%, the pest or weed control at 125 g/ha (yellow nutsedge [3]; 125 g ai/ha, postemergence, read-out: Plant response rating (0 to 100), Nutsedge, Yellow) was 15% and the pest or weed control at 250 g/ha (yellow nutsedge [3]; 250 g ai/ha, postemergence, read-out: Plant response rating (0 to 100), Nutsedge, Yellow) was 20%. It also gave a pest or weed control at 31 g/ha (yellow nutsedge [3]; Postemergence, 31 g ai/ha, scale 0 to 100 (0 no effect, 100 complete control), 13 to 15 days, read-out: Plant response rating, Nutsedge, Yellow) of 10%, a pest or weed control at 62 g/ha (yellow nutsedge [3]; Postemergence, 62 g ai/ha, scale 0 to 100 (0 no effect, 100 complete control), read-out: Plant response rating, Nutsedge, Yellow) of 15% and a pest or weed control at 125 g/ha (pigweed [4]; 125 g ai/ha, postemergence, read-out: Plant response rating (0 to 100), Pigweed) of 100%. The pest or weed control at 250 g/ha (pigweed [4]; 250 g ai/ha, postemergence, read-out: Plant response rating (0 to 100), Pigweed) was 100%, the pest or weed control at 31 g/ha (pigweed [4]; Postemergence, 31 g ai/ha, scale 0 to 100 (0 no effect, 100 complete control), 13 to 15 days, read-out: Plant response rating, Pigweed) was 100% and the pest or weed control at 62 g/ha (pigweed [4]; Postemergence, 62 g ai/ha, scale 0 to 100 (0 no effect, 100 complete control), read-out: Plant response rating, Pigweed) was 100%. It also gave a pest or weed control at 125 g/ha (ragweed; 125 g ai/ha, postemergence, read-out: Plant response rating (0 to 100), Ragweed) of 55%, a pest or weed control at 250 g/ha (ragweed; 250 g ai/ha, postemergence, read-out: Plant response rating (0 to 100), Ragweed) of 60% and a pest or weed control at 31 g/ha (ragweed; Postemergence, 31 g ai/ha, scale 0 to 100 (0 no effect, 100 complete control), 13 to 15 days, read-out: Plant response rating, Ragweed) of 50%. The pest or weed control at 62 g/ha (ragweed; Postemergence, 62 g ai/ha, scale 0 to 100 (0 no effect, 100 complete control), read-out: Plant response rating, Ragweed) was 55%, the pest or weed control at 125 g/ha (wild oat; 125 g ai/ha, postemergence, read-out: Plant response rating (0 to 100), Oat, Wild) was 35% and the pest or weed control at 250 g/ha (wild oat; 250 g ai/ha, postemergence, read-out: Plant response rating (0 to 100), Oat, Wild) was 55%. For the same compound, the pest or weed control at 31 g/ha (wild oat; Postemergence, 31 g ai/ha, scale 0 to 100 (0 no effect, 100 complete control), 13 to 15 days, read-out: Plant response rating, Oat, Wild) was 5% and the pest or weed control at 62 g/ha (wild oat; Postemergence, 62 g ai/ha, scale 0 to 100 (0 no effect, 100 complete control), read-out: Plant response rating, Oat, Wild) was 35%.

Source: patent US9695155B2, “Herbicidal substituted pyrimidinyloxy benzene compounds” (E. I. DU PONT DE NEMOURS AND COMPANY, priority 2013, dated 2017)
